Laboratory results from patent EP4523686A1, “A SIGMA-1 RECEPTOR POSITIVE MODULATOR FOR ITS USE IN THE PREVENTION AND THE TREATMENT OF A PATHOLOGY” (priority 2023, dated 2025).

Key:
[1] = molecular target: T1, 5-HT3 receptor (Homo sapiens, UniProt P46098); assay: CEREP in vitro binding assay (pharmacological profiling)
T1 construct: CEREP
T1 sequence (P46098 24-478): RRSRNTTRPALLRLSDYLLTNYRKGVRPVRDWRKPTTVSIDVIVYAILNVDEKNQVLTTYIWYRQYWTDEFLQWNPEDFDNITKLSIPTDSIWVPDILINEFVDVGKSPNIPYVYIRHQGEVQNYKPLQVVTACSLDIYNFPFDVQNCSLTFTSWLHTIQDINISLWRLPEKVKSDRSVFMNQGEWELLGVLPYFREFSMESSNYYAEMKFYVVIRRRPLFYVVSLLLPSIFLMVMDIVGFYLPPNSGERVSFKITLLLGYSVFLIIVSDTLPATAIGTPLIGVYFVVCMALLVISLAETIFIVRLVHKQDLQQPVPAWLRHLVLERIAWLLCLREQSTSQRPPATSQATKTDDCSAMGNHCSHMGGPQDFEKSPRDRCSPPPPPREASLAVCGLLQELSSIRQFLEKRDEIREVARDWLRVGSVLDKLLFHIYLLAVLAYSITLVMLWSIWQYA
Method: (§1) Table 1 represents pharmacological profiling of convolamine which was tested at […] and 1 µM in in vitro binding assays designed with appropriate reference compounds in duplicates at CEREP facility.

[2] = molecular target: T2, CB2 receptors (Homo sapiens, UniProt P34972); assay: as above; conditions: at micromolar concentrations; range given jointly for CB2, Kv, 5-HT3
T2 construct: CEREP
T2 sequence (P34972 whole entry): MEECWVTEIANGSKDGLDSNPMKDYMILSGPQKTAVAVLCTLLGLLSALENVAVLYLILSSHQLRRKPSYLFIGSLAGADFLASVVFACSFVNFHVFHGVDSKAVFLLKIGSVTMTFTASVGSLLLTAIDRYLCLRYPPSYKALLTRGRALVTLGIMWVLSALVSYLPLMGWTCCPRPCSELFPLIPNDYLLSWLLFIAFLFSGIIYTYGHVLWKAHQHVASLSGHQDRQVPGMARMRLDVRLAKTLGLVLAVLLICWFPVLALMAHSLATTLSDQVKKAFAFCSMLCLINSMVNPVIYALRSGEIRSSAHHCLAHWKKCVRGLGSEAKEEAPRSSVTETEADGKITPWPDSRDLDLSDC
Method: as §1

[3] = tested on: panel of 47 receptors and ionophores; assay: CEREP screen on a panel of 47 receptors and binding sites; conditions: all targets except CB2 receptors, Kv channels, 5-HT3 and 5-HT1B receptors
Method: as §1

[4] = tested on: wfs1ab^KO zebrafish larvae; assay: Visual motor response in zebrafish larvae (hyperlocomotor response); format: in vivo
Method: The visual motor response assay quantifies the locomotor activity of the zebrafish larvae to light intensity changes. The protocol was previously described (Crouzier et al., 2021a, 2021b, 2022). In brief, 5 dpf larvae were transfered in a 96-well plate (#7701-1651, Whatman) with 300 µl of fish water and placed in a Zebrabox® (ViewPoint, Lissieu, France). The locomotor behavior was monitored using an automated videotracking device equipped with an infra-red (IR) camera under IR light illumination (Zebralab®, Viewpoint). The light protocol was as follow: 30 min of acclimatization in the dark (0% light intensity), then 2 cycles of 10-min duration light ON and 10-min duration light OFF periods. The brightness changes were immediate (<< 1 s). The activity was measured in mm/s. For each larva, the mobility were calculated as mean (OFF-ON) values to account for inter- and intra-group variability in locomotor response.
A phenotypic test described by Crouzier et al. (2022) was performed. […] Compounds were added in the fish water of larvae at 4 dpf for 24 h, and screening parameters included: (1) the lack of toxicity (including grossly observable morphological alterations) after 24 h exposure; (2) the locomotor increase in wfs1ab^KO larvae, expressed as % of V-treated wfs1ab^KO response; (3) the eventual alteration of locomotion in wfs1ab^WT larvae, expressed as % of V-treated wfs1ab^WT response; and (4) the Protection index (PI) calculated as detailed in the Methods section.

[5] = tested on: Wfs1^ΔExon8 mice; assay: Spontaneous alternation in the Y-maze, Wolfram syndrome mouse model; format: in vivo; conditions: 1 mg/Kg IP, 20 min before the Y-maze session
Method: The Y-maze is made of grey polyvinylchloride. Each arm is 40 cm long, 13 cm high, 3 cm wide at the bottom, 10 cm wide at the top, and converging at an equal angle. Each mouse was placed at the end of one arm and allowed to move freely through the maze during an 8 min session. The series of arm entries, including possible returns into the same arm, were checked visually. An alternation is defined as entries into all three arms on consecutive occasions. The number of maximum alternations is therefore the total number of arm entries minus two and the percentage of alternation was calculated as (actual alternations / maximum alternations) × 100 (Maurice et al., 1996; Meunier et al., 2006, 2013). Exclusion criteria are locomotion < 10 or percentage of alternation < 25% or > 90%. Animals showing these readouts are excluded from the calculations. Attrition is routinely < 5% in this test.

[6] = tested on: Dizocilpine-induced learning impairments in mice; assay: Step-through passive avoidance, Dizocilpine-induced learning impairments; format: in vivo
Description: The apparatus is a two-compartments (15 × 20 × 15 cm high) box with one illuminated with white polyvinylchloride walls and the other darkened with black polyvinylchloride walls and a grid floor. A guillotine door separates each compartment. A 60 W lamp positioned 40 cm above the apparatus lights up the white compartment during the experiment. Scrambled foot shocks (0.3 mA for 3 s) could be delivered to the grid floor using a shock generator scrambler (Lafayette Instruments, Lafayette, USA). The guillotine door was initially closed during the training session. Each mouse was placed into the white compartment. After 5 s, the door was raised. When the mouse entered the darkened compartment and placed all its paws on the grid floor, the door is closed and the foot shocks delivered for 3 s. The step-through latency (STL-Tg), that is, the latency spent to enter the darkened compartment, and the number of vocalizations were recorded. The retention test was carried out 24 h after training. Each mouse was placed again into the white compartment. After 5 s, the door was raised. The step-through latency (STL-R) was recorded up to 300 s (Meunier et al., 2006, 2013; Villard et al., 2009, 2011). An exclusion criteria was STL-Tg and STL-R < 10 s. Animals showing these readouts are excluded from the calculations. Attrition is routinely < 5% in this test.

[7] = Summary of the in vivo tests (active dose range); conditions: dizocilpine-induced amnesia and Aβ25-35 tests
Description: A characteristic of SIG-1R positive modulators, likely due to the chaperone nature of SIG-1R, is to behave in vivo as agonists (Vavers et al., 2019).

COc1ccc(C(=O)OC2CC3CCC(C2)N3C)cc1OC (stereo not drawn) [Convolamine, (8-methyl-8-azabicyclo[3.2.1]octan-3-yl) 3,4-dimethoxybenzoate]
inhibition at 0.1 µM ([1]; 0.1 µM, duplicates): 16.2% | inhibition at 1 µM ([1]; 1 µM, duplicates): 61.7% | inhibition of binding on the 5-HT3 receptor (in words) ([1]; at 1 µM): partial inhibition | inhibitions of the selective radiotracer ([1]; at micromolar concentrations, range given jointly for CB2, Kv, 5-HT3): 20-60% | inhibitions of the selective radiotracer [2]: 20-60% | activity on the panel of 47 receptors and ionophores (in words) [3]: inactive | hyperlocomotor response of wfs1ab^KO zebrafish larvae (in words) ([4]; 0.3-3 µM concentration-range): dose-dependently abolished | Protection index (PI) ([4]; 5 dpf larvae, 24 h exposure, 3 µM): 1.0 | hyperlocomotor response of wfs1ab^KO zebrafish (in words) ([4]; at 3 µM in fish water): completely prevented | effect of convolamine on hyperlocomotor response under co-treatment with NE-100 (in words) ([4]; co-treatment with NE-100 at 3 µM): attenuated | alteration of spontaneous alternation (in words) [5]: significantly attenuated | convolamine effect on step-through latency under NE-100 co-treatment (in words) ([6]; Convolamine 1 mg/Kg IP with NE-100 1 mg/Kg): blocked | Dizocilpine-induced decrease of step-through latency (in words) ([6]; at 1 mg/kg IP): attenuated significantly | Dizocilpine-induced increase of escape latency (in words) ([6]; at 0.3-3 mg/kg IP): attenuated significantly | active dose [7]: 0.3 to 3 mg/kg
